Source: PubChem BioAssay (NCI)
“And” between values parts separate entries of the source, which are not always exact repeats. Equal values may be shown once.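 How tested: cells in 96-well plates exposed to compound for 48 hours at five concentrations. GI50 marks 50% less growth. TGI is the concentration that stops growth completely.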

Experiments:
Assay in all cases: NCI anticancer screen, dose series, 48 h
[1] = system: CCRF-CEM leukemia
[2] = system: NCI-H460 lung
[3] = system: NCI-H226 lung
[4] = system: HL-60(TB) leukemia
[5] = system: SK-MEL-2 melanoma
[6] = system: IGROV1 ovarian
[7] = system: MALME-3M melanoma
[8] = system: HCC-2998 colon
[9] = system: NCI/ADR-RES ovarian
[10] = system: MDA-MB-435

Structure (SMILES) | TGI [1] [µM] | TGI [2] [µM] | TGI [3] [µM] | TGI [4] | TGI [5] [µM] | TGI [6] [µM] | TGI [7] [µM] | TGI [8] | TGI [9] [µM] | TGI [10] [µM] | GI50 [1] [µM] | GI50 [2] [µM] | GI50 [3] [µM] | GI50 [5] [µM] | GI50 [8] [µM] | GI50 [10] [µM] | GI50 [7] [µM]
O=C1c2ccccc2C2C1N2C(=O)C(F)(F)F (centres undefined) | 70.9 | > 100 | > 100 | 91.5 µM | > 100 | > 100 | > 100 |  |  |  |  |  |  |  |  |  | 
CCOc1cc2c(cc1O)/C(=N\OC)C[C@@H]1[C@@H]2CC[C@]2(C)[C@@H](O)CC[C@@H]12 | > 100 | 37.3 | 0.654 |  | 4.42 | > 30.1 | 34.7 | 14.4 µM | 0.186 |  |  |  |  |  |  |  | 
COc1ccc(C2c3cc4c(cc3OC(NNS(=O)(=O)c3ccc(C)cc3)C2C)OCO4)cc1 (centres undefined) | > 100 | > 100 | > 100 | 84.7 µM | > 100 | > 100 | > 100 | > 100 µM |  | > 100 |  |  |  |  |  |  | 
CC1C=C(CCCCCCCCCCCC[C@@H](O)[C@@H]2CC[C@@H]([C@@H]3CC[C@@H](C(O)CCCCCCCCCCCCC4=C[C@H](C)OC4=O)O3)O2)C(=O)O1 (some centres undefined) | > 100 | > 100 | > 100 | > 100 µM | > 100 | > 100 | > 100 | > 100 µM |  |  |  |  |  |  |  |  | 
[N-]=[N+]=Nc1cc(=O)oc2ccccc12 | > 100 | > 100 | > 100 | > 100 µM | > 100 | > 100 | > 100 |  |  |  |  |  |  |  |  |  | 
N#CN=C(N(Cc1ccccc1)Cc1ccccc1)N(Cc1ccccc1)Cc1ccccc1 | > 100 | > 100 | > 100 | 83.8 µM | > 100 | > 100 | > 100 | > 100 µM |  |  |  |  |  |  |  |  | 
CCCNC1=C2CC(C)CC(OC)[C@@H](O)[C@H](C)/C=C(\C)C(OC(N)=O)C(OC)/C=C\C=C(/C)C(=O)NC(=CC1=O)C2=O (some centres undefined) | 3.13 | 29.4 | 5.21 | 2.34 µM and 0.547 µM | 31.4 | 41.6 |  | 3.23 µM and 13.1 µM |  | 28.8 | 0.309 | 0.0541 | 0.244 | 13.1 | 0.359 | 0.0903 | 
CC(N)Cc1ccc(C(=O)Cl)cc1 (centres undefined) | > 100 | > 100 |  |  | > 100 | > 100 | > 100 | > 100 µM |  |  |  |  |  |  |  |  | 
O=C([O-])CC(=O)[O-].O=C([O-])CC(=O)[O-].[K+].[Pd+2] |  | > 100 | > 100 |  | > 100 |  | > 100 | > 100 µM |  |  |  | > 100 | > 100 | > 100 | > 100 |  | > 100
CCN(CC)CCC(=O)Nc1ccc2c(c1)C(=O)c1ccc(NC(=O)CCN(CC)CC)cc1C2=O | 18.5 | 2.74 | 7.8 | 16.7 µM | 19 | 12 |  | > 100 µM |  |  |  |  |  |  |  |  | 
COc1nc(N)c(C(=O)CCl)c(=O)n1C | 79.8 | 39.5 | 20.5 | 5.61 µM | 25.1 | 30.2 | 22.7 | 23 µM |  |  |  |  |  |  |  |  | 
C[n+]1c2ccccc2c(/C=N\NS(=O)(=O)c2ccc(O)c(C(=O)O)c2)c2ccccc21 | > 100 | > 100 | > 100 | 84.2 µM | > 100 | > 100 | > 100 | > 100 µM |  |  |  |  |  |  |  |  | 
Cc1cccc2c(=O)cc(-c3ccccc3)[nH]c12 | > 100 | > 100 | > 100 | > 100 µM | > 100 | > 100 | > 100 | 18.1 µM |  |  |  |  |  |  |  |  | 
CC(C)CCCCCCCCCCCCC(=O)NCC(=O)NC1C(C)OC(Nc2ncnc3c2ncn3C)C(O)C1O (centres undefined) | > 100 | > 100 | 15.2 | 6.08 µM | > 100 | > 100 | > 100 | 11.6 µM | > 100 |  |  |  |  |  |  |  | 
O=C1CCC23CC(C=CC=C12)n1c(=O)n(-c2ccccc2)c(=O)n13 (centres undefined) | > 100 | > 100 | > 100 | > 80.5 µM | > 100 | > 100 | > 100 | > 100 µM | > 81.2 |  |  |  |  |  |  |  | 
CC(=O)NC1=C(NCCC(C)C)C(=O)c2ccccc2C1=O | > 50 | > 50 | > 50 | > 50 µM | > 50 | > 50 | > 50 | > 50 µM |  |  |  |  |  |  |  |  | 
COc1cc([C@@H]2OCC3C(c4ccc5c(c4)OCO5)OCC32)cc(OC)c1OC (some centres undefined) | > 100 | > 100 | > 100 | > 100 µM | > 100 | > 100 | > 100 | > 100 µM |  |  |  |  |  |  |  |  | 
O=C(Nc1ccc(C2=NCCN2)cc1)c1cncc(C(=O)Nc2ccc(C3=NCCN3)cc2)c1 | > 100 | > 100 | > 100 | > 100 µM | > 100 | > 100 | > 100 | > 100 µM | > 100 |  |  |  |  |  |  |  | 
C[C@]12CC[C@H](O)CC1=CC[C@@H]1C2CC[C@]2(C)C(=O)N(N)C(=O)CC12 (some centres undefined) | > 100 | > 100 | > 100 | > 100 µM | > 100 | > 100 | > 100 | > 100 µM |  |  |  |  |  |  |  |  | 
